PubChem BioAssay (NCI)
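At the GI50, growth is halved. Definition used: TGI = concentration required for complete inhibition of growth.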

Tests used:
Assay in all cases: growth of human tumour cells (NCI), 384-well format
[1] = system: NCI-H23 lung
[2] = system: HS 578T breast
[3] = system: HOP-62 NSCLC
[4] = system: OVCAR-5 ovarian
[5] = system: SF-539 CNS
[6] = system: RPMI-8226 leukemia
[7] = system: SNB-19 CNS
[8] = system: T-47D breast
[9] = system: OVCAR-8 ovarian
[10] = system: IGROV1 ovarian
[11] = system: MDA-MB-468 breast
[12] = system: SW-620 colon
[13] = system: MALME-3M melanoma

C[C@]12CCCN1CC1=NNC(=O)c3cc(F)cc4[nH]c2c1c34
GI50 [1]: 15.4 µM
TGI [1]: 35.5 µM
GI50 [2]: 13.6 µM
TGI [2]: 30.1 µM
GI50 [3]: 10.9 µM
TGI [3]: 45.6 µM
GI50 [4]: 17.9 µM
TGI [4]: 44.5 µM
GI50 [5]: 14.2 µM
TGI [5]: 33.9 µM
GI50 [6]: 10.5 µM
TGI [6]: 22.9 µM
GI50 [7]: 35.2 µM
TGI [7]: 97.7 µM
GI50 [8]: 31.7 µM
TGI [8]: > 86.3 µM
GI50 [9]: 13 µM
TGI [9]: 35.7 µM
GI50 [10]: 21.7 µM
TGI [10]: > 89.6 µM
GI50 [11]: 3.57 µM
TGI [11]: 18.8 µM
GI50 [12]: 7.57 µM
TGI [12]: > 39.2 µM
GI50 [13]: 34.4 µM
TGI [13]: 83.6 µM
